Read-outs that look alike come from different tables or passages of the source.
Key:
[1] = molecular target: somatostatin receptors (sst1) (Rattus norvegicus, UniProt P28646); test: somatostatin receptor affinity (pKd), rat; assay type: binding
Description: (§1) The following pKd values have been found:

[2] = tested on: mice; test: social recognition test; assay type: in vivo; conditions: social recognition test in mice
Experimental: Moreover when given at doses of about 0.03 to 3 mg/kg p.o. to rodents, the agents of the invention counteract electroshock-induced amnesia, increase retention performance in a passive avoidance paradigm (Mondadori et. al., Pharmacology Communications 1992, 2: 93-97) and improve social recognition (Mondadori et al., Behavioural Brain Research 1996, 77: 227-229). The compounds are therefore indicated for the treatment of cognitive disturbances and learning/memory disorders.

[3] = molecular target: somatostatin receptors (sst1) (Mus musculus, UniProt P30873); test: somatostatin receptor affinity (pKd), mouse; assay type: binding
Chain of somatostatin receptors (sst1) (Mus musculus, UniProt P30873) (P30873 whole entry): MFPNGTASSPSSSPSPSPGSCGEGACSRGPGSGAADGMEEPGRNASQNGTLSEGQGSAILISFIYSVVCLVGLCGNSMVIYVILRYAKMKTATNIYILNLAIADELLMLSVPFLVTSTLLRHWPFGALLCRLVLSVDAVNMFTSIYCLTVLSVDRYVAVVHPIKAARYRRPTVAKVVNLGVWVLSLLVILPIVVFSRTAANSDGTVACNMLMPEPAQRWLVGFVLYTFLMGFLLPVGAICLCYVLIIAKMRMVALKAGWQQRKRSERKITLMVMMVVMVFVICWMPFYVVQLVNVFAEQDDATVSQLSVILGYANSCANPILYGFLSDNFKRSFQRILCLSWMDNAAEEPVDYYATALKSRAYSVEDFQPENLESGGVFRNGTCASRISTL
Description: as §1

[4] = molecular target: T1, Somatostatin sst1 receptors (Homo sapiens, UniProt P30872); test: somatostatin receptor affinity (pKd), human; assay type: binding
T1 sequence (P30872 whole entry): as the sequence (P30873 whole entry) above, with A25G, C26G, S32A, A385T, S389T counted along it
Description: as §1

[5] = tested on: intruder rat; test: intruder test (intruder rat towards resident rat); assay type: in vivo
[6] = molecular target: T1, Somatostatin sst1 receptors

Chain of somatostatin receptors (sst1) (Rattus norvegicus, UniProt P28646) (P28646 whole entry): as the sequence (P30873 whole entry) above, with S8P, S11T, P16S, S20G, A25V, A45S counted along it

| selectivity among somatostatin receptors [6] | Kd ([1]; rat, read-out: pKd (converted)) [nM] | Structure (SMILES) | Kd [1] [nM] | learning/memory performance [2] | Kd [3] [nM] | Kd [4] [nM] | duration of social contacts of the intruder rat towards the resident rat [5] |
| --- | --- | --- | --- | --- | --- | --- | --- |
|  |  | CN(CCC(=O)N1CCN(c2ccc(F)c(F)c2)CC1)CCC1c2ccccc2Oc2ccccc21 [Compound A, 1-[4-(3,4-difluoro-phenyl)-piperazin-1-yl]-3-{methyl-[2-(9H-xanthen-9-yl)-ethyl]-amino}-propan-1-one] | 0.794 | specific enhancing effect | 3.98 to 10 | 1.58 to 5.01 | significantly increase |
| sst1 selective | 0.501 | CN(CCC(=O)N1CCN(c2ccc(F)c(F)c2)CC1)CCC1c2ccccc2-c2ccccc21 [Compound B, 1-[4-(3,4-difluoro-phenyl)-piperazin-1-yl]-3-{[2-(9H-fluoren-9-yl)-ethyl]-methyl-amino}-propan-1-one] |  | specific enhancing effect | 2.51 to 5.01 | 2.51 to 6.31 | significantly increase |

Source: US7271168B2, “Piperazine derivatives having SST1 antagonistic activity” (Novartis AG, priority 2001, dated 2007)
